# Test results taken from US12655088B2, “Compound for treating Alzheimer's disease” (XIAMEN UNIVERSITY, priority 2020, dated 2026).
# How the values were obtained:
# [1] = biological target: T1, USP25 (His-USP25^a.a.157-706 recombinant protein, deubiquitinase catalytic domain) (Homo sapiens, UniProt Q9UHP3); assay: Screening of USP25 inhibitors with Ubiquitin-Rhodamine 110; conditions: 10 μM compound, 33.3 nM His-USP25^157-706, 133.3 nM Ubiquitin-Rhodamine 110
# T1 sequence (Q9UHP3 157-706): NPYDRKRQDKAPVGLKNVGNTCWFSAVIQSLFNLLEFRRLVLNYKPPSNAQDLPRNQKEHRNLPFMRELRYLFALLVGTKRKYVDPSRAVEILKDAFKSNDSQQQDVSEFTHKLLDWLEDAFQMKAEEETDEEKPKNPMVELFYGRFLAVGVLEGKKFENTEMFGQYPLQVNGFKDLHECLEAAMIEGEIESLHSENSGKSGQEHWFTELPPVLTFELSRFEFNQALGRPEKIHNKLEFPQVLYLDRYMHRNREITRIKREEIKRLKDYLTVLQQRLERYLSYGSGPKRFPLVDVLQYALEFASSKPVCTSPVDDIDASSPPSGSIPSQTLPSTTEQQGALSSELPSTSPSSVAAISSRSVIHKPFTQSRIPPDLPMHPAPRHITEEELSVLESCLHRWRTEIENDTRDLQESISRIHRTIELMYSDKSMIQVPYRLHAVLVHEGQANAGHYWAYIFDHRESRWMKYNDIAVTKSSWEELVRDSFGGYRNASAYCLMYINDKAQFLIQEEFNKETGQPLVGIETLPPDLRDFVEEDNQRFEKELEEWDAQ
# Description: And then, the fluorescence intensity of Ubiquitin-Rhodamine 110 was detected by a Tecan Spark multifunctional microplate reader (Tecan, Switzerland).
# [2] = test system: Mouse microglial cell line BV2; assay: LPS-induced inflammatory response in microglia cell line BV2 (real-time PCR of Il1b); format: cell-based; conditions: 10 μM compound
# Procedure: Mouse microglial cell line BV2 was treated with 25 ng/mL lipopolysaccharide (LPS) and 10 μM MZ3, respectively.
# After the cells were treated for 24 hours, RNAs were extracted by TRIzol (Thermo Fisher Scientific), and then reverse-transcribed using Rever Tra Ace qPCR RT Kit (TOYOBO), and real-time fluorescence quantification PCR was performed using FastStart Universal SYBR Green Master (Roche) to detect the transcription levels of inflammation-related gene Il1b.
# After the cells were treated for 12 hours, RNAs were extracted by TRIzol (Thermo Fisher Scientific), and then reverse-transcribed using Rever Tra Ace qPCR RT Kit (TOYOBO), and real-time fluorescence quantification PCR was performed using FastStart Universal SYBR Green Master (Roche) to detect the transcription levels of inflammation-related gene Il1b.
# Mouse microglial cell line BV2 was treated with 100 ng/mL lipopolysaccharide (LPS) and 10 μM MZ24, MZ25, MZ26, MZ28, MZ29 and MZ31, respectively.
# [3] = test system: microglia of C57BL/6 mice; assay: LPS-induced inflammatory response of primary microglia (real-time PCR of Il1b and Il6); format: cell-based; conditions: 50 ng/mL LPS, 10 μM compound, 6 hours
# Procedure: After the cells were treated for 6 hours, RNAs were extracted by TRIzol (Thermo Fisher Scientific), and then reverse-transcribed using Rever Tra Ace qPCR RT Kit (TOYOBO), and real-time fluorescence quantification PCR was performed using FastStart Universal SYBR Green Master (Roche) to detect the transcription levels of inflammation-related genes Il1b and Il6.
# After the cells were treated for 6 hours, RNAs were extracted by TRIzol (Thermo Fisher Scientific), and then reverse-transcribed using Rever Tra Ace qPCR RT Kit (TOYOBO), and real-time fluorescence quantification PCR was performed using FastStart Universal SYBR Green Master (Roche) to detect the transcription levels of inflammation-related gene Il1b.
Compound,deubiquitinase activity of USP25 (Ubiquitin-Rhodamine 110 fluorescence intensity) [1],further results
OCCNCc1cc(Br)ccc1OCc1cc(C(F)(F)F)cc(C(F)(F)F)c1 [MZ1],can significantly inhibit,
OCCNCc1ccc(OC(F)F)c(OCc2cc(C(F)(F)F)cc(C(F)(F)F)c2)c1 [MZ3],can significantly inhibit,"LPS-induced Il1b expression ([2]; BV2, 25 ng/mL LPS, 24 hours): can significantly reduce"
COc1cc(OC)c(CN2CCN(C)CC2)c(OCc2cc(C(F)(F)F)cc(C(F)(F)F)c2)c1 [MZ4],can significantly inhibit,
COc1cc(OC)c(CNc2ccc(Br)cn2)c(OCc2cc(C(F)(F)F)cc(C(F)(F)F)c2)c1 [MZ5],can significantly inhibit,
CN1CCN(Cc2ccc(OC(F)F)c(OCc3cc(C(F)(F)F)cc(C(F)(F)F)c3)c2)CC1 [MZ23],can significantly inhibit,"LPS-induced Il1b expression ([2]; BV2, 50 ng/mL LPS, 12 hours): can significantly reduce"
COc1cc(OC)c(CN2CCN(CCO)CC2)c(OCc2cc(C(F)(F)F)cc(C(F)(F)F)c2)c1 [MZ24],can significantly inhibit,"LPS-induced Il1b expression ([2]; BV2, 100 ng/mL LPS, 12 hours): can significantly reduce"
OCCN1CCN(Cc2ccc(OC(F)F)c(OCc3cc(C(F)(F)F)cc(C(F)(F)F)c3)c2)CC1 [MZ25],can significantly inhibit,"LPS-induced Il1b expression ([2]; BV2, 100 ng/mL LPS, 12 hours): can significantly reduce"
CCN(CC)CCNCc1ccc(OC(F)F)c(OCc2cc(C(F)(F)F)cc(C(F)(F)F)c2)c1 [MZ26],can significantly inhibit,"LPS-induced Il1b expression ([2]; BV2, 100 ng/mL LPS, 12 hours): can significantly reduce"
CCN(CC)CCNCc1ccc(OC(F)F)c(OCc2cc(F)c(F)cc2F)c1 [MZ27],can significantly inhibit,
CN1CCN(Cc2ccc(OC(F)F)c(OCc3cc(F)c(F)cc3F)c2)CC1 [MZ28],can significantly inhibit,"LPS-induced Il1b expression ([2]; BV2, 100 ng/mL LPS, 12 hours): can significantly reduce"
OCCN1CCN(Cc2ccc(OC(F)F)c(OCc3cc(F)c(F)cc3F)c2)CC1 [MZ29],can significantly inhibit,"LPS-induced Il1b expression ([2]; BV2, 100 ng/mL LPS, 12 hours): can significantly reduce"
Fc1cc(F)c(COc2cc(CN3CCc4ccccc4C3)ccc2OC(F)F)cc1F [MZ30],can significantly inhibit,
Fc1cc(COc2ccc(Br)cc2CNCCc2c[nH]c3ccccc23)ccc1C(F)(F)F [MZ31],can significantly inhibit,"LPS-induced Il1b expression ([2]; BV2, 100 ng/mL LPS, 12 hours): can significantly reduce"
Cc1ccc(OCc2ccc(F)c(C(F)(F)F)c2)c(CN2CCN(CCO)CC2)c1 [MZ32],can significantly inhibit,
CCN1CCN(Cc2cc(Br)ccc2OCc2ccc(F)c(C(F)(F)F)c2)CC1 [MZ33],can significantly inhibit,
CCN(CC)CCNCc1cc(Br)ccc1OCc1cc(F)c(F)cc1F [MZ34],can significantly inhibit,"LPS-induced Il1b expression ([2]; BV2, 50 ng/mL LPS, 12 hours): can significantly reduce"
OCc1cc(Br)ccc1OCc1ccc(F)c(C(F)(F)F)c1 [MZ35],can significantly inhibit,
Fc1ccc(COc2ccc(Br)cc2CN(CCC2CCN(Cc3ccccc3)CC2)Cc2cc(Br)ccc2OCc2ccc(F)c(C(F)(F)F)c2)cc1C(F)(F)F [MZ36],can significantly inhibit,

Compound,deubiquitinase activity of USP25 (Ubiquitin-Rhodamine 110 fluorescence intensity) [1],further results
Fc1ccc(COc2ccc(Br)cc2CNCCC2CCN(Cc3ccccc3)CC2)cc1C(F)(F)F [MZ37],can significantly inhibit,
O=Cc1cc(Br)ccc1OCc1cc(F)c(F)cc1F [MZ38],can significantly inhibit,
"O=Cc1cc(Br)ccc1OCc1ccc(F)c(C(F)(F)F)c1 [MZ39, 5-bromo-2-(4-fluoro-3-(trifluoromethyl)benzyloxy)benzaldehyde]",can significantly inhibit,
O=Cc1ccc(OCc2ccc(F)c(C(F)(F)F)c2)c(OC(F)F)c1 [MZ40],can significantly inhibit,
COc1cc(OC)c(C=O)c(OCc2cc(C(F)(F)F)cc(C(F)(F)F)c2)c1 [MZ41],can significantly inhibit,
O=Cc1ccc(OC(F)F)c(OCc2cc(C(F)(F)F)cc(C(F)(F)F)c2)c1 [MZ42],can significantly inhibit,
COc1cc(OC)c(C=O)c(OCc2ccc(F)c(C(F)(F)F)c2)c1 [MZ43],can significantly inhibit,
OCCNCc1ccccc1OCc1ccc(F)c(C(F)(F)F)c1 [MZ66],can significantly inhibit,
OCCNCc1ccccc1OCc1cc(C(F)(F)F)cc(C(F)(F)F)c1 [MZ67],can significantly inhibit,
COc1cc(OC)c(CNCCO)c(OCc2ccc(F)c(C(F)(F)F)c2)c1 [MZ68],can significantly inhibit,
COc1cc(OC)c(CNCCO)c(OCc2cc(C(F)(F)F)cc(C(F)(F)F)c2)c1 [MZ69],can significantly inhibit,
COc1ccc(CNCCO)cc1OCc1ccc(F)c(C(F)(F)F)c1 [MZ71],can significantly inhibit,
COc1ccc(CNCCO)cc1OCc1cc(C(F)(F)F)cc(C(F)(F)F)c1 [MZ72],can significantly inhibit,
OCCNCc1ccccc1NCc1ccc(F)c(C(F)(F)F)c1 [MZ74],can significantly inhibit,
OCCNCc1ccccc1NCc1cccc(OC(F)(F)F)c1 [MZ75],can significantly inhibit,LPS-induced Il1b expression [3]: can significantly reduce
OCCNCc1cc(Br)ccc1NCc1ccc(F)c(C(F)(F)F)c1 [MZ76],can significantly inhibit,LPS-induced Il1b expression [3]: can significantly reduce
OCCNCc1cc(Br)ccc1NCc1cccc(OC(F)(F)F)c1 [MZ77],can significantly inhibit,LPS-induced Il1b expression [3]: can significantly reduce
"NCc1cc(Br)ccc1OCc1ccc(F)c(C(F)(F)F)c1 [XMU1, (5-bromo-2-((4-fluoro-3-(trifluoromethyl)benzyl)oxy)phenyl)methanamine]",can significantly inhibit,LPS-induced Il1b expression [3]: can significantly reduce
